# Literature values in patent publication US11759493B2, “Composition for the treatment of constipation” (NEILOS S.R.L., priority 2017, dated 2023).
# Tests used:
# [1] = 10 g, versus placebo, healthy individuals
# [2] = 20 and 40 g per day, both study groups
# [3] = patients affected by constipation, meta-analysis
percentage of people involved in the studies affected by diarrhea (20 g of active ingredient),diarrhea (dosage of 10 g per day),SMILES,transit in the small intestine [1],"frequency, volume and weight of feces [2]",evacuation frequency and feces consistency [3]
,,OC[C@H]1O[C@@H](O[C@@H]2[C@@H](CO)OC(O)(CO)[C@H]2O)[C@H](O)[C@@H](O)[C@H]1O (mixture of isomers) [lactulose],accelerating effect,significant increase,
5-20%,absence of diarrhea,"OC[C@@H](O)[C@@H](O[C@@H]1O[C@H](CO)[C@H](O)[C@H](O)[C@H]1O)[C@H](O)[C@@H](O)CO [lactitol, 4-O-β-D-galactopyranosyl-D-glucitol]",,,increase the evacuation frequency and the feces consistency
